# Data from ChEMBL document CHEMBL1130817, “Sulfonamide derivatives of benzylamine block cholesterol biosynthesis in HepG2 cells: a new type of potent squalene epoxidase inhibitors” (Bioorg Med Chem Lett, 1998).
# Legend:
# Squalene monooxygenase [1] = target: Squalene monooxygenase (Homo sapiens, UniProt Q14534); experiment: In vitro inhibition of cholesterol biosynthesis in human HepG2 cells.; type: functional, cell-based
# [2] = target: Squalene monooxygenase (Rattus norvegicus) (UniProt P52020); experiment: Compound was evaluated in vivo for the inhibition of rat mammalian squalene epoxidase […]; type: organism-based
# Sequence of Squalene monooxygenase (Rattus norvegicus) (P52020 whole entry, looked up): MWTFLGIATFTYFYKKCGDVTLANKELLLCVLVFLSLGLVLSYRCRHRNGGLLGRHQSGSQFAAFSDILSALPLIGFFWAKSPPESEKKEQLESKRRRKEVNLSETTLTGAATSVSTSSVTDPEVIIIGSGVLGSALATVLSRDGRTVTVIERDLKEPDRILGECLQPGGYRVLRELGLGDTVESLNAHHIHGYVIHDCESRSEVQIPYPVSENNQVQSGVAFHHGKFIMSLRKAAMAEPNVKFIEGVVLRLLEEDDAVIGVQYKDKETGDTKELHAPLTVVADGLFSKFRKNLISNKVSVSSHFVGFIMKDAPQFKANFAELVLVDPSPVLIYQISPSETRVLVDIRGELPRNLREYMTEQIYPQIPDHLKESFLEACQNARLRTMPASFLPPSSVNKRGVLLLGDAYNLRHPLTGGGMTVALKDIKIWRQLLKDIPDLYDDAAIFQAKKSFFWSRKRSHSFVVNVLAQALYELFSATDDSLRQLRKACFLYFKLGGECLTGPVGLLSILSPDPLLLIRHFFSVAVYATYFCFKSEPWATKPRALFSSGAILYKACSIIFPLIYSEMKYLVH
# Squalene monooxygenase [3] = target: Squalene monooxygenase (Rattus norvegicus, UniProt P52020); experiment: In vitro inhibition of rat liver squalene epoxidase […]; type: cell-based
# Sequence of Squalene monooxygenase (Rattus norvegicus, UniProt P52020) (P52020 whole entry): as the sequence (P52020 whole entry, looked up) above
# [4] = target: Squalene monooxygenase (Rattus norvegicus) (UniProt P52020); experiment: Compound was evaluated in vivo for the inhibition of rat squalene epoxidase […]; Inactive; type: organism-based
# Sequence of Squalene monooxygenase (Homo sapiens, UniProt Q14534) (Q14534 whole entry): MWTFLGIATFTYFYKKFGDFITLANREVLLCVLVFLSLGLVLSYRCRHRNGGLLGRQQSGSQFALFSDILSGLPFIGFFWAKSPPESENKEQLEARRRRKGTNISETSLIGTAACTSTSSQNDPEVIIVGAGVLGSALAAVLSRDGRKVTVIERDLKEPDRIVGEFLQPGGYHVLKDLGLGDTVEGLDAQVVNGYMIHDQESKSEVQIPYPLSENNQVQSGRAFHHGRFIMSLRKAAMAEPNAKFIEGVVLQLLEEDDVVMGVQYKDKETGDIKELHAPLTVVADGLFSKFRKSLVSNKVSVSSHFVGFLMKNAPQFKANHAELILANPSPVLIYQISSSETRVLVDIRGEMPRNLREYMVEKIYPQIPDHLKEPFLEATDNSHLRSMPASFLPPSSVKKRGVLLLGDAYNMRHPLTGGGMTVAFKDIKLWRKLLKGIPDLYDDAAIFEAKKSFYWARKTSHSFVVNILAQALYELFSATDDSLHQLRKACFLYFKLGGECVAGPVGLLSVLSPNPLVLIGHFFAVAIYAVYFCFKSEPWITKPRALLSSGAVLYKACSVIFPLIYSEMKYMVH
SMILES,IC50 (Squalene monooxygenase [1]) [nM],also measured
CCN(C/C=C/C#CC(C)(C)C)Cc1cccc(OCCN(C)S(=O)(=O)c2ccc(C#N)cc2)c1,200,–
CCN(C/C=C/C#CC(C)(C)C)Cc1cccc(OCCN(C)S(=O)(=O)c2cccnc2)c1,150,–
CCN(C/C=C/C#CC(C)(C)C)Cc1cccc(OCCN(C)S(=O)(=O)c2ccc(-c3ccsc3)s2)c1,210,–
CCN(C/C=C/C#CC(C)(C)C)Cc1cccc(OCCN(CC)S(=O)(=O)c2cccs2)c1,90,–
CCN(C/C=C/C#CC(C)(C)C)Cc1cccc(OCCNS(=O)(=O)c2cccs2)c1,450,–
CCN(C/C=C/C#CC(C)(C)C)Cc1cccc(OCCN(C)S(=O)(=O)Cc2cccs2)c1,200,–
CCN(C/C=C/C#CC(C)(C)C)Cc1cccc(OCc2cc(-c3ccsc3)cs2)c1,–,ED50 [2]: 2.5 mg/kg
CCN(C/C=C/C#CC(C)(C)C)Cc1cccc(OCCN(C)S(=O)(=O)c2ccc(Br)cc2)c1,330,–
CCN(C/C=C/C#CC(C)(C)C)Cc1cccc(OCCN(C)S(=O)(=O)c2cccs2)c1,60,IC50 (Squalene monooxygenase [3]): 6000 nM; ED50 [4]: 40 mg/kg
CCN(C/C=C/C#CC(C)(C)C)Cc1cccc(OCCN(C)S(=O)(=O)c2cc3ccccc3s2)c1,1800,–
CCN(C/C=C/C#CC(C)(C)C)Cc1cccc(OCCCS(=O)(=O)c2cccs2)c1,290,–
CCN(C/C=C/C#CC(C)(C)C)Cc1cccc(OCCN(C)S(=O)(=O)c2ccc(-c3cccs3)s2)c1,10000,–
CCN(C/C=C/C#CC(C)(C)C)Cc1cccc(OCCN(C)S(=O)(=O)c2nccs2)c1,170,–
CCN(C/C=C/C#CC(C)(C)C)Cc1cccc(OCCN(C)S(=O)(=O)c2cc(-c3ccsc3)cs2)c1,90,–
CCN(C/C=C/C#CC(C)(C)C)Cc1cccc(OCCN(C)S(=O)(=O)c2ccsc2)c1,250,–
CCN(C/C=C/C#CC(C)(C)C)Cc1cccc(OCCN(C)S(=O)(=O)c2ccc(Br)s2)c1,390,–
CCCN(CCOc1cccc(CN(CC)C/C=C/C#CC(C)(C)C)c1)S(=O)(=O)c1cccs1,170,–
CCN(C/C=C/C#CC(C)(C)C)Cc1cccc(OCCCN(C)S(=O)(=O)c2cccs2)c1,6400,–
CCN(C/C=C/C#CC(C)(C)C)Cc1cccc(OCCN(C)S(=O)(=O)c2cc(Br)cs2)c1,300,–
CCN(C/C=C/C#CC(C)(C)C)Cc1cccc(OCCN(C2CC2)S(=O)(=O)c2cccs2)c1,230,–
CCN(C/C=C/C#CC(C)(C)C)Cc1cccc(OCCN(C)S(=O)(=O)c2ccc(F)cc2)c1,255,–
